Reference: US9540333B2, “Alkyl amide-substituted pyrimidine compounds useful in the modulation of IL-12, IL-23 and/or IFNα” (Bristol-Myers Squibb Company, priority 2012, dated 2017)

Columns and labels:
[1] = target: T1, His-tagged protein corresponding to amino acids 575-869 of human Tyk2 (Homo sapiens, UniProt P29597); experiment: Probe displacement assay (scintillation proximity, radiolabeled probe); format: binding; conditions: 2.5 nM Tyk2 (575-869), 40 nM tritiated probe, 30 minutes at room temperature
T1 construct: His-tagged protein corresponding to amino acids 575-869 of human Tyk2; made in house
T1 sequence (P29597 575-869): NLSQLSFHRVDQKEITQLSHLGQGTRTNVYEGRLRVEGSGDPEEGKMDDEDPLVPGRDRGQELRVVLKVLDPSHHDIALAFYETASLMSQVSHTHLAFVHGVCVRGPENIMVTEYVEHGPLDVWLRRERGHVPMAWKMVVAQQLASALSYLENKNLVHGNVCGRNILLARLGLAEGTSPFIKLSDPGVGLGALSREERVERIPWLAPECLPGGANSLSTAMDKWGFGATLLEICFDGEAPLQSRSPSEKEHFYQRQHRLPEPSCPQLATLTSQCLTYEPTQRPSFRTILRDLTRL
Method: The probe displacement assay is conducted as follows: In a […], test compounds along with recombinantly expressed His-tagged protein corresponding to amino acids 575-869 of human Tyk2 (sequence shown below) at 2.5 nM, 40 nM ((R)—N-(1-(3-(8-methyl-5-(methylamino)-8H-imidazo[4,5-d]thiazolo[5,4-b]pyridin-2-yl)phenyl)ethyl)-2-([^3H]methylsulfonyl)benzamide) (preparation described below) and 80 μg/mL Copper His-Tag scintillation proximity assay beads (Perkin Elmer, Catalog #RPNQ0095) in 50 mM HEPES, pH 7.5, containing 100 μg/mL bovine serum albumin and 5% DMSO were incubated for 30 minutes at room temperature. The amount of radiolabeled probe (preparation described below) bound to Tyk2 was then quantified by scintillation counting, and the inhibition by the test compound calculated by comparison to wells either with no inhibitor (0% inhibition) or without Tyk2 (100% inhibition). The IC50 value is defined as the concentration of test compound required to inhibit radiolabeled probe binding by 50%.
Protein Sequence of recombinant Hig-tagged Tyk2 (575-869):
The preparation of radiolabeled probe, (R)—N-(1-(3-(8-methyl-5-(methylamino)-8H-imidazo[4,5-d]thiazolo[5,4-b]pyridin-2-yl)phenyl)ethyl)-2-([^3H]methylsulfonyl)benzamide, was performed as described below.

[2] = tested on: IFNα stimulated Kit225 T cells with STAT-dependent luciferase reporter; experiment: Kit225 T cell assay, IFNα stimulated STAT-dependent luciferase reporter; format: cell-based; conditions: 200 U/mL human recombinant IFNα, 5-6 hours, read-out: IFNα Kit225 Reporter, LE (IC50)
Method: (§1) Kit225 T cells with a stably-integrated STAT-dependent luciferase reporter were plated in RPMI (Gibco) containing 10% heat-inactivated FBS (Gibco) and 100 U/mL PenStrep (Gibco). The cells were then stimulated with either 20 ng/mL human recombinant IL-23 or 200 U/mL human recombinant IFNα (PBL InterferonSource) for 5-6 hours. Luciferase expression was measured using the STEADY-GLO® Luciferase Assay System (Promega) according to the manufacturer's instructions. Inhibition data were calculated by comparison to no inhibitor control wells for 0% inhibition and non-stimulated control wells for 100% inhibition. Dose response curves were generated to determine the concentration required to inhibit 50% of cellular response (IC50) as derived by non-linear regression analysis.

[3] = tested on: IL-23 stimulated Kit225 T cells with STAT-dependent luciferase reporter; experiment: Kit225 T cell assay, IL-23 stimulated STAT-dependent luciferase reporter; format: cell-based; conditions: 20 ng/mL human recombinant IL-23, 5-6 hours, read-out: IL-23 Kit225 Reporter, LE (IC50)
Method: as §1

Row | EC50 [1] | IC50 [2] | IC50 [3] | Structure (SMILES)
1 | 50 nM | 3020 nM | 4660 nM | CNC(=O)c1cnc(Nc2cccc(-c3ccccc3)c2)nc1Nc1ccccc1C(N)=O [Example 5]
2 | 70 nM | 1450 nM | 1320 nM | CNC(=O)c1cnc(Nc2ccc(-c3ccccc3)cc2)nc1Nc1ccccc1C(N)=O [Example 10]
3 | 8.47 nM | 460 nM | 280 nM | CNC(=O)c1cnc(Nc2ccc(F)c(F)c2)nc1Nc1ccccc1S(C)(=O)=O [Example 14]
4 | 60 nM | 2790 nM | 2650 nM | CNC(=O)c1cnc(Nc2ccc(F)cc2)nc1Nc1ccccc1C(N)=O [Example 2]
5 | 1350 nM | 12500 nM | 3540 nM | CNC(=O)c1cnc(Nc2ccc(F)cc2)nc1Nc1cccc(C(N)=O)c1 [Example 6]
6 | 70 nM | 590 nM | 60 nM | CNC(=O)c1cnc(Nc2ccc(F)cc2)nc1Nc1ccccc1S(C)(=O)=O [Example 11]
7 | 30 nM | 160 nM | 200 nM | CNC(=O)c1cnc(Nc2ccccc2)nc1Nc1ccccc1S(C)(=O)=O [Example 12]
8 | 120 nM | 12500 nM | 8280 nM | CNC(=O)c1cnc(NC2CCCC2)nc1Nc1ccccc1C(N)=O [Example 8]
9 | 110 nM | 12500 nM | 9680 nM | CNC(=O)c1cnc(NC2CCC2)nc1Nc1ccccc1C(N)=O [Example 7]
10 | 840 nM | 12500 nM | 3510 nM | CNC(=O)c1cnc(Nc2ccc(F)cc2)nc1Nc1ccccc1 [Example 3]
11 | 530 nM | 9520 nM | 8510 nM | CNC(=O)c1cnc(Nc2ccccc2)nc1Nc1ccccc1 [Example 4]
12 | 20 nM | 310 nM | 200 nM | CNC(=O)c1cnc(Nc2ccc(F)c(C)c2)nc1Nc1ccccc1S(C)(=O)=O [Example 13]
13 | 320 nM | 1600 nM | 3400 nM | CNC(=O)c1cnc(NCC2CC2)nc1Nc1ccccc1S(C)(=O)=O [Example 1]
